Measurements reported in ChEMBL document CHEMBL4219236, “Synthesis of some novel dimethine, bis-dimethine cyanine dyes and octacosamethine cyanine dyes endowed with promising biological potency against (HepG2), (Hela), (MCF-7), (MIA), (SN12C) and (H358) cell lines” (Bioorg Med Chem Lett, 2018).
Values after ≈ are worked out from the molar mass of the structure shown.

Assays:
Format in all cases: functional, cell-based
SN12C = test: Cytotoxicity against human SN12C cells assessed as decrease in cell viability after 96 hrs
HepG2 = test: Cytotoxicity against human HepG2 cells assessed as decrease in cell viability after 96 hrs; settings: HepG2, 96 h
MIA PaCa-2 = test: Cytotoxicity against human MIAPaCa2 cells assessed as decrease in cell viability after 96 hrs; settings: MIA PaCa-2, 96 h
HeLa = test: Cytotoxicity against human HeLa cells assessed as decrease in cell viability after 96 hrs
MCF7 = test: Cytotoxicity against human MCF7 cells assessed as decrease in cell viability after 96 hrs; settings: MCF7, 96 h
NCI-H358 = test: Cytotoxicity against human NCI-H358 cells assessed as decrease in cell viability after 96 hrs; settings: NCI-H358, 96 h

SMILES	IC50 (SN12C) [mg/L]	IC50 (HepG2) [mg/L]	IC50 (MIA PaCa-2) [mg/L]	IC50 (HeLa) [mg/L]	IC50 (MCF7) [mg/L]	IC50 (NCI-H358) [mg/L]
C1=Cc2cc3cc(/C=C(\c4ccccc4)c4cccc[n+]4C4CCC([n+]5ccccc5Cc5ccccc5)CC4)c(cc4nc(cc5ccc(cc1n2)[nH]5)C=C4)[nH]3.[Br-].[Br-] (configuration not stated)	38.9	48	45.9	40.3	45.9	38.1
O=S(=O)([O-])c1ccccc1/C=C(\c1ccccc1)c1cccc[n+]1C1CCC([n+]2ccccc2/C(=C/c2ccccc2S(=O)(=O)[O-])c2ccccc2)CC1.[Br-].[Br-].[Na+].[Na+] (configuration not stated)	26.3	25.4	33.5	32.3	22.5	26.3
C(=C(/c1ccccc1)c1cccc[n+]1C1CCC([n+]2ccccc2Cc2ccccc2)CC1)/c1cc2c3c(c1)CCCN3CCC2.[Br-].[Br-] (configuration not stated)	86.5	62.5	101	101	96.9	36.5
O=S(=O)([O-])c1ccccc1/C=C(\c1ccccc1)c1cccc[n+]1C1CCC([n+]2ccccc2Cc2ccccc2)CC1.[Br-].[Br-].[Na+] (configuration not stated)	25	32.2	50	39.6	29	30
O=CC1=Cc2cc3cc(/C=C(\c4ccccc4)c4cccc[n+]4C4CCC([n+]5ccccc5/C(=C/c5cc6cc7nc(cc8ccc(cc9nc(cc5[nH]6)C=C9)[nH]8)C(C=O)=C7)c5ccccc5)CC4)c(cc4nc(cc5ccc(cc1n2)[nH]5)C=C4)[nH]3.[Br-].[Br-] (configuration not stated)	20	21	20	21	16	15.2
C(=C(/c1ccccc1)c1cccc[n+]1C1CCC([n+]2ccccc2/C(=C/c2cc3c4c(c2)CCCN4CCC3)c2ccccc2)CC1)/c1cc2c3c(c1)CCCN3CCC2.[Br-].[Br-] (configuration not stated)	52.6	53.1	55.6	49.8	35.6	75.6
C1=Cc2cc3cc(/C=C(\c4ccccc4)c4cccc[n+]4C4CCC([n+]5ccccc5/C(=C/c5cc6cc7nc(cc8ccc(cc9nc(cc5[nH]6)C=C9)[nH]8)C=C7)c5ccccc5)CC4)c(cc4nc(cc5ccc(cc1n2)[nH]5)C=C4)[nH]3.[Br-].[Br-] (configuration not stated)	31.1	33	45.6	35.3	45.6	49.6
O=CC1=Cc2cc3cc(/C=C(\c4ccccc4)c4cccc[n+]4C4CCC([n+]5ccccc5Cc5ccccc5)CC4)c(cc4nc(cc5ccc(cc1n2)[nH]5)C=C4)[nH]3.[Br-].[Br-] (configuration not stated)	20.3	25.2	29.3	23.7	19.1	23.3
O=c1[nH]cc(F)c(=O)[nH]1 [FLUOROURACIL]	6.5 (≈ 50 µM)		3.5 (≈ 26.9 µM)	3.2 (≈ 24.6 µM)		6.9 (≈ 53 µM)
